Results reported in patent US20220135622A1, “ANTIBACTERIAL PEPTIDES AND METHODS OF USE” (priority 2019, published 2022).
Values after ≈ are worked out from the molar mass of the structure shown. Like-named read-outs stand apart in the source and are kept apart here. Square brackets hold non-standard residues; d marks the D form. Peptide text beside a SMILES is read from it. Bip = N[C@@H](Cc1ccc(-c2ccccc2)cc1)C(=O)O; hPhe = N[C@@H](CCc1ccccc1)C(=O)O; Ahp(2) = CCCCC[C@H](N)C(=O)O; hSer = N[C@@H](CCO)C(=O)O; Dap = NC[C@H](N)C(=O)O; Aib = CC(C)(N)C(=O)O

What was measured:
E. coli BW25113 = assay type: cell-based, Escherichia coli
Procedure: (§1) Bacterial growth conditions. LB or Mueller Hinton II cation-adjusted broth (MHB II, BBL 212322) was prepared according to manufacturer's instructions and supplemented with arabinose at 0.02% for overnight growth or at indicated concentrations in the description of the figures. Bacterial cultures were grown at 37° C. When appropriate, media was supplemented with kanamycin (50 μg/mL), carbenicillin (50 μg/mL), chloramphenicol (12.5 or 25 μg/mL), hygromycin (200 μg/mL), and/or gentamicin (10 μg/mL).
(§2) Peptide sensitivity and MIC assays. Lyophilized peptides (Smartox Biotechnology, CPC Scientific. ABclonal) were solubilized to 10 mM in Tris buffer, pH 8, prior to making a 2-fold dilution series in MHBII cation adjusted broth with highest final assay concentration of 400-800 μM. Bacteria were grown to log phase and added to final OD600˜0.001. The final EDTA concentration was 0.5 mM for E. coli strains and 0.125 mM for USA300. The final volume of 10 μL/well in a 384 well black, clear bottom plate (Corning) was spun <1 min at <250×g and then incubated at 37° C. After 4 h, an equal volume (10 μL) of BacTiter-Glo™ (Promega) was added to each well and luminescence was read after 5 min on an EnVision plate reader (PerkinElmer). To measure the minimal inhibitory concentrations (MICs), bacteria from fresh overnight plates or log phase cultures were diluted with or without EDTA and peptides as described above to final OD600˜0.0002. Plates were incubated at 37° C. for 20 h before measuring OD600 with an EnVision plate reader.

K. pneumoniae = assay type: cell-based, Klebsiella pneumoniae
Procedure: as §1, §2

A. baumannii = assay type: cell-based, Acinetobacter baumannii
Procedure: as §1, §2

P. aeruginosa = assay type: cell-based, Pseudomonas aeruginosa
Procedure: as §1, §2

Compound	MIC E. coli BW25113 (E. coli BW25113; BW25113) [µM]	MIC K. pneumoniae (K. pneumoniae) [µM]	MIC A. baumannii (A. baumannii) [µM]	MIC R. aeruginosa (P. aeruginosa) [µM]	MIC E. coli BW25113 (E. coli BW25113; Table 8) [µM]	MIC K. pneumoniae (K. pneumoniae; Table 8) [µM]	MIC A. baumannii (A. baumannii; Table 8) [µM]	MIC R. aeruginosa (P. aeruginosa; Table 8) [µM]
Ac-RPMTARRWLAKRGL-NH2 [compound 201]	25.0	>400.0	>400.0	>400.0				
CSCC[C@H](NC(=O)[C@H](CN)NC(=O)[C@H](CCSC)NC(=O)[C@@H]1CCCN1C(=O)[C@H](Cc1ccc(O)cc1)NC(C)=O)C(=O)N[C@@H](CCCNC(=N)N)C(=O)N[C@@H](CCCNC(=N)N)C(=O)N[C@@H](Cc1c[nH]c2ccccc12)C(=O)N[C@@H](CC(C)C)C(=O)N[C@@H](CCC(=O)O)C(=O)N[C@@H](CCCCN)C(=O)N[C@@H](Cc1c[nH]c2ccccc12)C(=O)NCC(=O)N[C@@H](CC(C)C)C(=O)N[C@@H](CC(C)C)C(=O)N[C@@H](CCCNC(=N)N)C(N)=O [compound 89] (Ac-YPM[Dap]MRRWLEKWGLLR-NH2)	25.0 (≈ 54.1 µg/mL)	25.0 (≈ 54.1 µg/mL)	25.0 (≈ 54.1 µg/mL)	100.0 (≈ 216 µg/mL)				
Ac-RPMTMRRFLEKWGL-NH2 [compound 206]					200.0	200.0	200.0	200.0
CC(=O)N[C@@H](Cc1ccc(O)cc1)C(=O)N1CCC[C@H]1C(=O)N[C@@H](CCc1ccccc1)C(=O)N[C@H](C(=O)N[C@@H](C)C(=O)N[C@@H](CCCNC(=N)N)C(=O)N[C@@H](CCCNC(=N)N)C(=O)N[C@@H](Cc1ccccc1)C(=O)N[C@@H](CC(C)C)C(=O)N[C@@H](CCC(=O)O)C(=O)N[C@@H](CCCCN)C(=O)N[C@@H](Cc1c[nH]c2ccccc12)C(=O)NCC(=O)N[C@@H](CC(C)C)C(=O)N[C@@H](CC(C)C)C(=O)N[C@@H](CCCNC(=N)N)C(N)=O)[C@@H](C)O [compound 91] (Ac-YP[hPhe]TARRFLEKWGLLR-NH2)					50.0 (≈ 105 µg/mL)	>400.0	50.0 (≈ 105 µg/mL)	>400.0
CCCCC[C@H](NC(=O)[C@@H](NC(=O)[C@H](CCSC)NC(=O)[C@@H]1CCCN1C(=O)[C@H](CCCNC(=N)N)NC(C)=O)[C@@H](C)O)C(=O)N[C@@H](CCCNC(=N)N)C(=O)N[C@@H](CCCNC(=N)N)C(=O)N[C@@H](Cc1c[nH]c2ccccc12)C(=O)N[C@@H](CC(C)C)C(=O)N[C@@H](CCC(=O)O)C(=O)N[C@@H](CCCCN)C(=O)N[C@@H](CCCNC(=N)N)C(=O)NCC(=O)N[C@@H](CC(C)C)C(N)=O [compound 212] (Ac-RPMT[Ahp(2)]RRWLEKRGL-NH2)					100.0 (≈ 187 µg/mL)	>400.0	200.0 (≈ 373 µg/mL)	>400.0
CSCC[C@H](NC(=O)[C@@H]1CCCN1C(=O)[C@H](Cc1ccc(O)cc1)NC(C)=O)C(=O)N[C@H](C(=O)NC(C)(C)C(=O)N[C@@H](CCCNC(=N)N)C(=O)N[C@@H](CCCNC(=N)N)C(=O)N[C@@H](Cc1ccccc1)C(=O)N[C@@H](CC(C)C)C(=O)N[C@@H](CCC(=O)O)C(=O)N[C@@H](CCCCN)C(=O)N[C@@H](Cc1c[nH]c2ccccc12)C(=O)NCC(=O)N[C@@H](CC(C)C)C(=O)N[C@@H](CC(C)C)C(=O)N[C@@H](CCCNC(=N)N)C(N)=O)[C@@H](C)O [compound 93] (Ac-YPMT[Aib]RRFLEKWGLLR-NH2)					200.0 (≈ 419 µg/mL)	400.0 (≈ 837 µg/mL)	50.0 (≈ 105 µg/mL)	>400.0
CSCC[C@H](NC(=O)[C@H](CN)NC(=O)[C@H](CCSC)NC(=O)[C@@H]1CCCN1C(=O)[C@H](Cc1ccc(O)cc1)NC(C)=O)C(=O)N[C@@H](CCCNC(=N)N)C(=O)N[C@@H](CCCNC(=N)N)C(=O)N[C@@H](Cc1ccc(-c2ccccc2)cc1)C(=O)N[C@@H](CC(C)C)C(=O)N[C@@H](CCC(=O)O)C(=O)N[C@@H](CCCCN)C(=O)N[C@@H](Cc1c[nH]c2ccccc12)C(=O)NCC(=O)N[C@@H](CC(C)C)C(=O)N[C@@H](CC(C)C)C(=O)N[C@@H](CCCNC(=N)N)C(N)=O [compound 82] (Ac-YPM[Dap]MRR[Bip]LEKWGLLR-NH2)					100.0 (≈ 220 µg/mL)	50.0 (≈ 110 µg/mL)	12.5 (≈ 27.5 µg/mL)	50.0 (≈ 110 µg/mL)
CSCC[C@H](NC(=O)[C@H](CN)NC(=O)[C@H](CCSC)NC(=O)[C@@H]1CCCN1C(=O)[C@H](CCCNC(=N)N)NC(C)=O)C(=O)N[C@@H](CCCNC(=N)N)C(=O)N[C@@H](CCCNC(=N)N)C(=O)N[C@@H](Cc1ccc(-c2ccccc2)cc1)C(=O)N[C@@H](CC(C)C)C(=O)N[C@@H](CCC(=O)O)C(=O)N[C@@H](CCCCN)C(=O)N[C@@H](Cc1c[nH]c2ccccc12)C(=O)NCC(=O)N[C@@H](CC(C)C)C(N)=O [compound 209] (Ac-RPM[Dap]MRR[Bip]LEKWGL-NH2)					6.25 (≈ 12 µg/mL)	12.5 (≈ 24 µg/mL)	12.5 (≈ 24 µg/mL)	25.0 (≈ 48.1 µg/mL)
CSCC[C@H](NC(=O)[C@H](CN)NC(=O)[C@H](CCSC)NC(=O)[C@@H]1CCCN1C(=O)[C@H](Cc1ccc(O)cc1)NC(C)=O)C(=O)N[C@@H](CCCNC(=N)N)C(=O)N[C@@H](CCCNC(=N)N)C(=O)N[C@@H](Cc1ccccc1)C(=O)N[C@@H](CC(C)C)C(=O)N[C@@H](CCC(=O)O)C(=O)N[C@@H](CCCCN)C(=O)N[C@@H](Cc1c[nH]c2ccccc12)C(=O)NCC(=O)N[C@@H](CC(C)C)C(=O)N[C@@H](CC(C)C)C(=O)N[C@@H](CCCNC(=N)N)C(N)=O [compound 78] (Ac-YPM[Dap]MRRFLEKWGLLR-NH2)					12.5 (≈ 26.5 µg/mL)	25.0 (≈ 53.1 µg/mL)	25.0 (≈ 53.1 µg/mL)	100.0 (≈ 212 µg/mL)
Ac-RPMTARRFLAKRGL-NH2 [compound 210]					200.0	>400.0	>400.0	>400.0
CSCC[C@H](NC(=O)[C@@H]1CCCN1C(=O)[C@H](Cc1ccc(O)cc1)NC(C)=O)C(=O)N[C@@H](CN)C(=O)N[C@@H](C)C(=O)N[C@@H](CCCNC(=N)N)C(=O)N[C@@H](CCCNC(=N)N)C(=O)N[C@@H](Cc1ccccc1)C(=O)N[C@@H](CC(C)C)C(=O)N[C@@H](C)C(=O)N[C@@H](CCCCN)C(=O)N[C@@H](Cc1c[nH]c2ccccc12)C(=O)NCC(=O)N[C@@H](CC(C)C)C(=O)N[C@@H](CC(C)C)C(=O)N[C@@H](CCCNC(=N)N)C(N)=O [compound 86] (Ac-YPM[Dap]ARRFLAKWGLLR-NH2)					25.0 (≈ 50.1 µg/mL)	50.0 (≈ 100 µg/mL)	25.0 (≈ 50.1 µg/mL)	50.0 (≈ 100 µg/mL)
CSCC[C@H](NC(=O)[C@@H]1CCCN1C(=O)[C@H](CCCNC(=N)N)NC(C)=O)C(=O)N[C@H](C(=O)N[C@@H](C)C(=O)N[C@@H](CCCNC(=N)N)C(=O)N[C@@H](CCCNC(=N)N)C(=O)N[C@@H](Cc1c[nH]c2ccccc12)C(=O)N[C@@H](CC(C)C)C(=O)N[C@@H](CCO)C(=O)N[C@@H](CCCCN)C(=O)N[C@@H](CCCNC(=N)N)C(=O)NCC(=O)N[C@@H](CC(C)C)C(N)=O)[C@@H](C)O [compound 211] (Ac-RPMTARRWL[hSer]KRGL-NH2)					50.0 (≈ 89.2 µg/mL)	>400.0	>400.0	>400.0
Ac-YPMTARRFFEKWGLLR-NH2 [compound 94]					200.0	>400.0	200.0	>400.0
CSCC[C@H](NC(=O)[C@@H]1CCCN1C(=O)[C@H](Cc1ccc(O)cc1)NC(C)=O)C(=O)N[C@H](C(=O)N[C@@H](C)C(=O)N[C@@H](CCCNC(=N)N)C(=O)N[C@@H](CCCNC(=N)N)C(=O)N[C@@H](Cc1ccccc1)C(=O)N[C@@H](CC(C)C)C(=O)N[C@@H](CCO)C(=O)N[C@@H](CCCCN)C(=O)N[C@@H](Cc1c[nH]c2ccccc12)C(=O)NCC(=O)N[C@@H](CC(C)C)C(=O)N[C@@H](CC(C)C)C(=O)N[C@@H](CCCNC(=N)N)C(N)=O)[C@@H](C)O [compound 85] (Ac-YPMTARRFL[hSer]KWGLLR-NH2)					200.0 (≈ 410 µg/mL)	200.0 (≈ 410 µg/mL)	100.0 (≈ 205 µg/mL)	200.0 (≈ 410 µg/mL)
Ac-RPMTWRRFLAKYGL-NH2 [compound 200]	50.0	200.0	50.0	50.0				
COC[C@H](NC(=O)[C@@H](NC(=O)[C@H](CCSC)NC(=O)[C@@H]1CCCN1C(=O)[C@H](CCCNC(=N)N)NC(C)=O)[C@@H](C)O)C(=O)N[C@@H](CCCNC(=N)N)C(=O)N[C@@H](CCCNC(=N)N)C(=O)N[C@@H](Cc1c[nH]c2ccccc12)C(=O)N[C@@H](CC(C)C)C(=O)N[C@@H](C)C(=O)N[C@@H](CCCCN)C(=O)N[C@@H](CCCNC(=N)N)C(=O)NCC(=O)N[C@@H](CC(C)C)C(N)=O [compound 215] (Ac-RPMTS(Me)RRWLAKRGL-NH2)	200.0 (≈ 357 µg/mL)	>400.0	>400.0	>400.0				
